From patent EP0248597A2, “Phospholipase A2 inhibitors and methods of synthesis” (ORTHO PHARMACEUTICAL CORPORATION, priority 1986, dated 1987) come the findings set out here.

Each structure is given as a SMILES string. Values joined by “and” are separate entries in the source; they are usually repeats but may differ in a detail not shown here. Equal entries are not always repeated. Structures can show the parent of a compound that is named as a salt.

Test [1] has as its target Rat Stomach Phospholipase A2 (Rattus norvegicus, UniProt P04055). Nature of the test: Phospholipase A2 assay (hydrolysis of 14C-arachidonyl phosphatidyl choline), rat stomach enzyme. Format: biochemical. The conditions noted are these: at 10^-4M; read-out: Percent Inhibition of the Hydrolytic Activity of Rat Stomach Phospholipase A2. As to the method: (§1) The following procedure is a modification of the Phospholipase A₂ assay that was first described by Costentino et al., Prostaglandins, 22, 309 (1981) and is the method used herein to determine rat stomach and porcine pancreas phospholipas A₂ activity.
(§2) A suspension of phospholipase A₂ (Sigma Chemical Co., St. Louis, MO) is diluted with 25 millimolar (mM) Tris HCl buffer containing 1 mM calcium chloride to a final concentration of 10 micrograms of protein per milliliter (ml). Aliquots of 0.1 ml (7.1 units) of the enzyme suspension are added to each assay tube. Test compounds are added tin 0.01 ml aliquots in dimethyl sulfoxide or methanol and the volume is brought to 0.15 ml with the buffer. A preincubation is carried out at 37°C for 5 minutes. To start the reaction, 0.01 microcuries (0.179 nanomoles) of 2-arachidonyl (1-¹⁴C) 1-palmitoyl phosphatidyl choline (New England Nuclear, Boston, MA) are added to each tube, including three blank tubes containing no enzyme, and the incubation is carried out for 10 minutes at 37°C. The reaction is stopped with the addition of 0.07 ml of 1N HCl to each tube. Blanks, controls and each concentration of test compound are assayed in triplicate.
(§3) The reaction mixtures are extracted with ethyl acetate, and the organic and aqueous phases are separated by low speed centrifugation. The organic phase is dried under nitrogen and is then resuspended in 0.01 ml ethyl acetate. Arachidonic acid (50 micrograms in 0.01 ml methanol) is added to each tube as a carrier and standard. The entire mixture is spotted on silica gel G thin layer chromatography plates that are developed in a solvent system of ethyl acetate:acetic acid (99:1 by volume). […] Ten ml of Aquasol-2 (American Cyanamid Co., Wayne, NJ) are added to each vial, and the radioactivity is counted by liquid scintillation spectrometry.
(§4) The data are calculated as the ratio in percent of unesterified arachidonic acid to total radioactivity recovered. The potency of a compound is preferably determined by its IC₅₀ value (the concentration required to inhibit the reaction by 50 percent). […]

Test [2] concerns the target T1, Porcine Pancreas Phospholipase A2 (Sus scrofa, UniProt P00592).
T1 construct: purchased Sigma Chemical Co., St. Louis, MO; host or cells: porcine pancreas
Nature of the test: Phospholipase A2 assay (hydrolysis of 14C-arachidonyl phosphatidyl choline), porcine pancreas enzyme. The format is biochemical. As to the method:
as §1, §2, §3, §4

Test [3] has as its system experimentally-induced inflammation in the mouse ear. Nature of the test: Mouse ear edema assay (topical anti-inflammatory activity). The format is in vivo. As to the method:
Compound 2 was also studied in a mouse ear edema assay to provide a measure of topical anti-inflammatory activity.
The topical antiinflammatory activity of a compound is determined by its ability to inhibit an experimentally-induced inflammation in the mouse ear. Croton oil, or 12-0-tetradecanoylphorbol acetate in acetone is dispensed onto the dorsum of one ear of the mouse. Five to six hours later the mice are sacrificed. A section of each ear is removed with a 7 mm cork borer and weighed on a electronic balance. The difference in weight between treated and untreated ears is determined. Compounds to be evaluated for antiinflammatory activity are incorporated in the croton oil irritant mixture, or applied in an appropriate vehicle.

T1 sequence (P00592 23-146): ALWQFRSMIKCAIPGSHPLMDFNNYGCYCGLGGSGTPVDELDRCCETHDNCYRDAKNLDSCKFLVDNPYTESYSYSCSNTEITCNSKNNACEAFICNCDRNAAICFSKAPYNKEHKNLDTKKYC
Chain of Rat Stomach Phospholipase A2 (P04055 23-146): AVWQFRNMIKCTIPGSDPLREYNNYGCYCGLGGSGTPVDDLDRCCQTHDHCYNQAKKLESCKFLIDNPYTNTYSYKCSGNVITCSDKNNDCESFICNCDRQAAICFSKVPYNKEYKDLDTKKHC

The inhibition is the percentage by which the read-out fell short of the control. In the case of `CCCCCCCCCCCC/C=C\[C@@H](SC[C@H](NC(C)=O)C(=O)OC)C(CCCCO)=NO` [Compound 14, Methyl N-acetyl-S-6-[(5S,6R)-1-hydroxy-5-oximino-7(Z)-eicosenyl]-(R)-cysteinate], the inhibition at 100 µM turned out to be 58% in test [1] and 72% in test [2] (at 10^-4M, read-out: Percent Inhibition of the Hydrolytic Activity of Porcine Pancreas Phospholipase A2). Besides, in test [2] (at 10^-4M, 100 µM), the “Percent Inhibition of the Hydrolytic Activity of Porcine Pancreas Phospholipase A2” value stood at 73%.

`CCCCCCCCCCCC/C=C\[C@@H](SC[C@H](NC(C)=O)C(=O)OC)[C@@H](O)CCCCO` [Compound 2, Methyl N-acetyl-S-6[(5S,6R)-1,5-dihydroxy-7(Z)-eicosenyl]-(R)-cysteinate]: the “Inhibition (percent) Mouse No. 1” value in test [3] (50 micrograms) is listed as 33%; in test [3] (100 micrograms) it was 53%; in test [3] (200 micrograms), 62%; in test [3] (400 micrograms) it was 75%. The “Inhibition (percent) Mouse No. 2” value worked out at 68% in test [3] (50 micrograms), 72% in test [3] (100 micrograms), 82% in test [3] (200 micrograms) and 80% in test [3] (400 micrograms). Further, the “Percent Inhibition of the Hydrolytic Activity of Porcine Pancreas Phospholipase A2” value in test [2] (at 10^-5 Molar (M), three independent trials, 10 µM) was 62% and 86% and 68%.

`CCCCCCCCCCCC/C=C\[C@@H](SC[C@H](N)C(=O)O)[C@@H](O)CCCCO` [Compound 4, (5S,6R)-6-[S-(R)-cysteinyl] -7(Z)-eicosen-1,5-diol hemihydrate]: in test [1], the inhibition at 100 µM stood at 40%.

As to `CCCCCCCCCCCC/C=C\[C@@H](SC[C@H](NC(=O)CC[C@H](N)C(=O)O)C(=O)NCC(=O)O)[C@@H](O)CCCCOC1CCCCO1` (stereo partly drawn) [Compound 3, S-6-[(5S,6R)-5-hydroxy-1-(2-tetrahydropyranyloxy)-7(Z)-eicosenyl] glutathione triethylammonium salt dihydrate], in test [1], the inhibition at 100 µM turned out to be 55%.
